Results taken from US9808434B2, “Compound for treating cancer and diabetes” (CITY OF HOPE, priority 2011, dated 2017).

Key:
[1] = tested on: B16-F0; experiment: Colony formation assay, B16-F0; type: cell-based, mouse; settings: 10 μM, vs untreated control
Method: (§1) Cell survival was evaluated using a standard colony-forming assay. […] After 7 or 10 days, adherent colonies were fixed, stained with 0.5% methylene blue for 30 min and colonies were counted using the Innotech Alpha Imager HP (91).

[2] = tested on: SKOV3, MADH2744 and A2780 DPPr cells; experiment: Ovarian cancer cell viability, cellular acid phosphatase activity; type: cell-based, human; settings: 48 hours, 0-10 μM
Method: SKOV3 is a cisplatin resistant human ovarian cancer cell line. Human ovarian cancer cells (SKOV3, MADH2744, and […]) were incubated with COH-SR4 at various concentrations (0˜10 μM) or without COH-SR4 for 48 hours. Cells Viabilities were determined by measuring cellular acid phosphatase activities. Data were represented as a ratio to vehicle (DMSO) control.

[3] = tested on: isolated mouse liver mitochondria; experiment: Oxygen consumption rate in isolated liver mitochondria; settings: increasing concentrations
Method: Mitochondria were isolated from the livers of 10 week old male C57BL/6 mice. Mice were euthanized by CO2 inhalation followed by cervical dislocation. Livers were removed, minced with scissors, and immediately placed in ˜10 volumes of ice-cold mitochondria isolation medium (250 mM sucrose, 10 mM Tris-HCl, 1 mM EGTA, 1% fatty acid/endotoxin-free BSA, pH 7.4). The presence of BSA in the medium allowed the endogenous free fatty acids to be chelated from the homogenate suspension. The tissues were homogenized using 25-30 strokes in Potter-Elvehjem tissue grinder. Following centrifugation at 800×g for 10 min at 4° C., the fats/lipids were carefully aspirated, and the remaining supernatant was filtered through sterile 0.40 micron nylon mesh membrane and centrifuged at 8,000×g for 10 min at 4° C. […] The mitochondrial protein concentration was determined by the DC Protein Assay kit (Bio-Rad, Hercules, Calif.) with BSA as a standard. […]
Isolated mouse liver mitochondria (2 μg/well or 5 μg/well) were seeded on Seahorse 96-well plate, and respiration (OCR) was measured on mitochondria respiring either on pyruvate (10 mM) and malate (2 mM) or succinate (10 mM) and rotenone (2 μM) using a Seahorse 96 Flux Analyzers according to Rogers et al (90).

[4] = tested on: AMPK; experiment: AMPK activation in HL-60 cells, Western blot; type: cell-based, human; settings: 1 hour
Method: Activation of AMPK was associated with the phosphorylation of the α-subunit on Thr-172 of as assessed using phospho-specific antibodies (FIGS. 10A-B). AMPK activation also leads to the increased phosphorylation of the target protein acetyl-CoA carboxylase (ACC) (FIG. 10B).
Cells of each cell lines (Hela, HL-60, and 3T3-L1) were treated for 1 hour with a test compound (COH-SR4, COH-SR9, COH-SR16, or COH-SR18) at a concentration of 1 μM, 3 μM, or 5 μM, or AICAR (5-aminoimidazole-4-carboxamideriboside, an AMPK agonist used as positive control) at a concentration of 500 μM, or none of the above (the untreated cells as negative control). Total cell lysates from the untreated cells and the cells treated with a test compound or AICAR were analyzed by Western blot assay using specific antibodies against phospho-AMPK, phospho-ACC, total AMPK and total ACC.

[5] = tested on: HepG2 liver carcinoma cells; experiment: Intracellular AMP:ATP ratio in HepG2; type: cell-based, human; settings: 5 μM, 1 h
Method: ATP production from cells treated with test compounds were measured using the Luminescent ATP Detection Assay Kit. AMP, ATP and ADP were measured by UV-HPLC.
Total intracellular ATP production in cells treated with either 5 μM COH-SR4 or 5 μM FCCP was measured by bioluminescence assay and expressed as percentage of time-matched vehicle (DMSO) control (FIG. 84A). Intracellular AMP: ATP ratios increased in HepG2 liver carcinoma cells following 1 h treatment with either 5 μM COH-SR4 or 5 μM FCCP (FIG. 84B) and in liver of db/db mice treated with COH-SR4 (5 mg/kg B.W.) for 5 weeks (FIG. 84C). All data represented are mean±SEM, *P<0.05.

[6] = tested on: HUVEC cells; experiment: HUVEC cytotoxicity; type: cell-based; settings: 48 hours, up to 10 μM
Method: HUVEC were treated with COH-SR4 at a concentration from 0.1˜100 μM for 48 hours.

[7] = tested on: U87; experiment: Glioma ATP viability assay, U87; type: cell-based; settings: Homo sapiens, U-87 MG; Table 1; 72 hours
Method: (§2) Cells of each cell line (U251, U87, PBT-017, PBT018, PBT003 and PBT028) were treated with various concentrations (0˜100 μM) of COH-SR4 for 72 hours. Cell viabilities were determined by ATP viability assays. Data were represented as a ratio to vehicle (DMSO) control, and plotted as mean±SEM (n=12) obtained from 2˜3 experiments (FIG. 34A).
as §2, with “(U87, U251,” for “(U251, U87, PBT-017, PBT018,”, “PVT-017)” for “PBT028)”, “2-3” for “2˜3”, “34B).” for “34A).”

[8] = tested on: Hs600T; experiment: Colony formation assay, Hs600T; type: cell-based, human; settings: 10 μM, vs untreated control
Method: as §1

[9] = tested on: lung cancer cell lines; experiment: TUNEL apoptosis assay, lung cancer cell lines; type: cell-based, human; settings: 1.5 μM, 24 h
Method: […] Apoptosis was determined by the labeling of DNA fragments with terminal deoxynucleotidyl-transferase dUTP nick-end labeling (TUNEL) assay using Promega fluorescence apoptosis detection system, and examined using Zeiss LSM 510 META laser scanning fluorescence microscope with filters 520 and 620 nm according to the protocol described previously (91). Photographs taken at identical exposure at ×400 magnification are presented.
The effect of COH-SR4 was first examined in a NCI panel of cancer cell lines, the results of which indicated good activity of COH-SR4 towards lung cancer (FIG. 78A). […] Values are presented as mean±SD from two separate determinations with eight replicates each (n=16) (FIG. 78B). The COH-SR4 treatment exerted a significant inhibitory effect on the survival of lung cancer cells [IC50: H1417 cells-1.2±0.2 μM, H1618 cells-1.5±0.2 μM, H358 cells-2.1±0.2 μM and H520 cells-2.4±0.3 μM]. […] Following initial screening for the anticancer activity of COH-SR4, the effect of COH-SR4 on clonogenic potential was studied. Standard colony-forming assay was performed and the colonies were counted using Innotech Alpha Imager HP. […] The effect of COH-SR4 on induction of apoptosis was further investigated. […] TUNEL assay was performed using Promega fluorescence detection kit and examined using Zeiss LSM 510 META laser-scanning fluorescence microscope with filters 520 and 620 nm. […]

[10] = tested on: Hs600T; experiment: MTT assay, Hs600T; type: cell-based; settings: Homo sapiens
Method: Cell density measurements were performed using a hemocytometer to count reproductive cells resistant to staining with trypan blue. Approximately 20,000 cells were plated into each well of 96-well flat-bottomed micro-titer plates. After 12 h or 24 h incubation at 37° C., medium containing either COH-SR4 (ranging 0-200 μM) or elesclomol (ranging 0-20 μM) were added to the cells. After 24 h, 48 h or 96 h incubation, 20 μL of 5 mg/mL MTT were introduced to each well and incubated for 2 h. The plates were centrifuged and medium was decanted. Cells were subsequently dissolved in 100 μl DMSO with gentle shaking for 2 h at room temperature, followed by measurement of OD570 (91).
Cells of highly aggressive mouse melanoma cell line B16-F0 or human melanoma cell line Hs600T were incubated with various doses of COH-SR4 (1, 2.5, 5, 10, 25, 50, or 100 μM). The cell viabilities after treatment of 48 hours and 96 hours were measured and summarized in FIGS. 54A and 55A, respectively. […] Data were presented as mean±Standard Deviation from two separate determinations with eight replicate each (n=16).

## O=C(Nc1cc(Cl)cc(Cl)c1)Nc1cc(Cl)cc(Cl)c1 [COH-SR4, 1,3-bis(3,5-dichlorophenyl) urea]
[1]
  colony formation: 38±9%
[2]
  cytotoxicity on regular and cisplatin-resistant ovarian cancer cells: dose-dependent cytotoxicity and anti-proliferative effects
[3]
  OCR of mitochondria respiring on pyruvate and malate or succinate-rotenone: dose-dependently increased OCR of mitochondria
[4]
  AMPK activation: activated AMPK
[5]
  intracellular AMP:ATP ratios: increased
[6]
  cytotoxicity to HUVEC cells: almost no cytotoxicity
[7]
  IC50: 2800 nM
[8]
  colony formation: 48±5%
[9]
  apoptosis (TUNEL): induced apoptosis in all the lung cancer cell lines
[10]; 48 h
  IC50: ~10 µM
[10]; 96 h
  IC50: ~6 µM
